Article PMC4128814, “A High Throughput Screen Identifies Potent and Selective Inhibitors to Human Epithelial 15-Lipoxygenase-2” (PLoS ONE, 2014)

Columns and labels:
15-LOX-1 = molecular target: T1, 15-LOX-1 (Homo sapiens, UniProt P16050); assay: Lipoxygenase UV-Vis assay, 15-LOX-1; assay type: biochemical; conditions: estimated from one inhibitor point at 20 µM; 10 µM AA
T1 construct: His6 (N); made in house
T1 sequence (P16050 1-662): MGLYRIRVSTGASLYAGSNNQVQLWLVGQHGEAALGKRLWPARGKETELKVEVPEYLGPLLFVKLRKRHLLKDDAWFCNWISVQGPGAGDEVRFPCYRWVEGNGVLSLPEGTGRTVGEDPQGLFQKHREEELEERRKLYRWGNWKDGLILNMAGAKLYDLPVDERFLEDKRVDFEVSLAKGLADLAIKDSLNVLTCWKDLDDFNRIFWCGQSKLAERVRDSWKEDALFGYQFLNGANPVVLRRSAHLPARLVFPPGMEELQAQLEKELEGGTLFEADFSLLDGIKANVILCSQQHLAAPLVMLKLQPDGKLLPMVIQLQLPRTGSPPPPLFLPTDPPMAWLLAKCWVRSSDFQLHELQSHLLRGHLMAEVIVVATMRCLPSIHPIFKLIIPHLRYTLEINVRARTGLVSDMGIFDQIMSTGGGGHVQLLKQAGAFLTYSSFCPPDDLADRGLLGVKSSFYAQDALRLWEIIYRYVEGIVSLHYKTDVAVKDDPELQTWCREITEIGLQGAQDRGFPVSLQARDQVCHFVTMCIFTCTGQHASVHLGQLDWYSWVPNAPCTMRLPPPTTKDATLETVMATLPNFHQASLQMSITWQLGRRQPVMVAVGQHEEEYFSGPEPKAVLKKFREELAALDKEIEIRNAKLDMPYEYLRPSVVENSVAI
Text: Different lipoxygenases, such as 15-LOX-1, 15-LOX-2, and 12-LOX were expressed as N-terminal His6-tagged proteins and were purified via immobilized metal affinity chromatography (IMAC) using an Ni-NTA resin for 15-LOX-1 [12], and 15-LOX-2 [17], and a Ni-IDA resin for 12-LOX [18]. […] Human leukocyte 5-lipoxygenase (5-LOX) was expressed as a non-tagged protein and used as a crude ammonium sulfate protein fraction, as published previously, [20].
The inhibitor compounds were screened initially using one concentration point at 25 µM on a Perkin-Elmer Lambda 40 UV/Vis spectrophotometer. […] The reactions were initiated by adding 200 nM 15-LOX-2, 30 nM 12-LOX, 40 nM 15-LOX-1, or approximately 100–300 nM (5–10 µL) of 5-LOX crude extract to a cuvette with 2 mL reaction buffer, constantly stirred using a magnetic stir bar at room temperature (22°C). Reaction buffers used for various LOX isozymes were as follows: 25 mM HEPES (pH 7.3), 0.3 mM CaCl2, 0.1 mM EDTA, 0.2 mM ATP, 0.01% Triton X-100, 10 µM AA for the crude, ammonium sulfate precipitated 5-LOX; and 25 mM HEPES (pH 7.5), 0.01% Triton X-100, 10 µM AA for 15-LOX-2, 15-LOX-1, and 12-LOX. […] The data were then plotted against inhibitor concentration, followed by a hyperbolic saturation curve fit (assuming total enzyme concentration [E]≪IC50). […] All inhibitors were stored at −20°C in DMSO. […]

5-LOX = molecular target: T2, 5-LOX (Homo sapiens, UniProt P09917); assay: Lipoxygenase UV-Vis assay, 5-LOX crude extract; assay type: biochemical; conditions: estimated from one inhibitor point at 20 µM; 10 µM AA
T2 construct: made in house
T2 sequence (P09917 1-674): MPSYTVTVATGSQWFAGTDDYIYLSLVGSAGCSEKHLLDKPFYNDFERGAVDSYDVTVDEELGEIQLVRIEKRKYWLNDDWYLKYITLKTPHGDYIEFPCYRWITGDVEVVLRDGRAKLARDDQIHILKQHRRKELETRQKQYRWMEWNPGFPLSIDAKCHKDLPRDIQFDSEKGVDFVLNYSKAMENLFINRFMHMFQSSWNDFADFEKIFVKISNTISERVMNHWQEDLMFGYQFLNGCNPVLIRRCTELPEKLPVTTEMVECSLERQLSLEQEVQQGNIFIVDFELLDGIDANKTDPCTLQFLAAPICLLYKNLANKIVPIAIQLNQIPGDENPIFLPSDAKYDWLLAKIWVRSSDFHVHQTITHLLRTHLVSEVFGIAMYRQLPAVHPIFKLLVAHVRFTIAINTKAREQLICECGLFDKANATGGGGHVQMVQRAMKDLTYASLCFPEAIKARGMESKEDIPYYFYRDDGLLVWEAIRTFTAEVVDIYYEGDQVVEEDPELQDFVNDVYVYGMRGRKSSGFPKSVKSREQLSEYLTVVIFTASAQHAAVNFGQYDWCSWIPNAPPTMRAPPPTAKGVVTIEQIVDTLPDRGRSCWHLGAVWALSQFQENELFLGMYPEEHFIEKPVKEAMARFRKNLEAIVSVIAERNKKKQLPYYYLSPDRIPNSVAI
Procedure: Human leukocyte 5-lipoxygenase (5-LOX) was expressed as a non-tagged protein and used as a crude ammonium sulfate protein fraction, as published previously, [20].
The reactions were initiated by adding 200 nM 15-LOX-2, 30 nM 12-LOX, 40 nM 15-LOX-1, or approximately 100–300 nM (5–10 µL) of 5-LOX crude extract to a cuvette with 2 mL reaction buffer, constantly stirred using a magnetic stir bar at room temperature (22°C). Reaction buffers used for various LOX isozymes were as follows: 25 mM HEPES (pH 7.3), 0.3 mM CaCl2, 0.1 mM EDTA, 0.2 mM ATP, 0.01% Triton X-100, 10 µM AA for the crude, ammonium sulfate precipitated 5-LOX; and 25 mM HEPES (pH 7.5), 0.01% Triton X-100, 10 µM AA for 15-LOX-2, 15-LOX-1, and 12-LOX. The substrate concentration was quantitatively determined by allowing the enzymatic reaction to go to completion in the presence of 15-LOX-2. […] The data were then plotted against inhibitor concentration, followed by a hyperbolic saturation curve fit (assuming total enzyme concentration [E]≪IC50). […] All inhibitors were stored at −20°C in DMSO. NDGA was utilized as positive control for the selectivity assays for the various LOX isozymes.

| Structure (SMILES) | IC50 (15-LOX-1) [µM] | IC50 (5-LOX) [µM] |
| --- | --- | --- |
| Clc1ccc(-c2nnc(C3CCCCC3)o2)cc1 [MLS000545091] | > 100 | > 50 |
| Cc1ccc(CSc2ncn(-c3ccccc3)n2)cc1 [MLS000536924] | > 50 | > 100 |
